“And” between values parts separate entries of the source, which are not always exact repeats. Equal entries are not always repeated. Square brackets hold non-standard residues; d marks the D form. Peptide text beside a SMILES is read from it. * marks the point of attachment. NODAGA = O=C(O)CN1CCN(CC(=O)O)CCN(C(CCC(=O)*)C(=O)O)CC1; Tic = O=C(O)[C@@H]1Cc2ccccc2CN1
Tests used:
UMRC3 cells = test: [18F]FGln uptake in UMRC3 cells; type: cell-based, human
[1] = target: deoxycytidine kinase (dCK) (Mus musculus, UniProt P43346); test: TRE-515 treatment of EAE mouse models of MS; type: in vivo
deoxycytidine kinase (dCK), sequence (P43346 whole entry): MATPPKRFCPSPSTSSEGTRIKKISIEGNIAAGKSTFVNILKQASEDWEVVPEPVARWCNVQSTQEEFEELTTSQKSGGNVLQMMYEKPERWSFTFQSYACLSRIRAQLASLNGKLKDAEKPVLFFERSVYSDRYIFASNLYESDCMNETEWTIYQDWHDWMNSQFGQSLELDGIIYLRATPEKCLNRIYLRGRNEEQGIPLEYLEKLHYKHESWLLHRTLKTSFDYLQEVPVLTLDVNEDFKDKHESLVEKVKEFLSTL

PDGFR-β = type: in vivo, mouse; details: imatinib for 3 weeks
[2] = tumor boron content by ICP-MS; type: in vivo, mice; details: 3h after intraperitoneal injection
[3] = target: Glucocorticoid receptor (GR) (Mus musculus, UniProt P06537); test: 18F-YJH08 biodistribution in mice; details: 30 min post injection, PC3 renal capsule tumors
K+ channels = test: first-in-human [18F]3F4AP brain PET; type: in vivo
ccRCC lung tumors = test: [18F]FGln PET/MRI of ccRCC lung tumors; parameters: species or system nude mice; details: mouse, in vivo
CSF1R = CSF1R (Mus musculus, UniProt P09581); test: [18F]1 brain uptake in control and LPS-treated mice; type: in vivo
CSF1R, sequence (P09581 20-977): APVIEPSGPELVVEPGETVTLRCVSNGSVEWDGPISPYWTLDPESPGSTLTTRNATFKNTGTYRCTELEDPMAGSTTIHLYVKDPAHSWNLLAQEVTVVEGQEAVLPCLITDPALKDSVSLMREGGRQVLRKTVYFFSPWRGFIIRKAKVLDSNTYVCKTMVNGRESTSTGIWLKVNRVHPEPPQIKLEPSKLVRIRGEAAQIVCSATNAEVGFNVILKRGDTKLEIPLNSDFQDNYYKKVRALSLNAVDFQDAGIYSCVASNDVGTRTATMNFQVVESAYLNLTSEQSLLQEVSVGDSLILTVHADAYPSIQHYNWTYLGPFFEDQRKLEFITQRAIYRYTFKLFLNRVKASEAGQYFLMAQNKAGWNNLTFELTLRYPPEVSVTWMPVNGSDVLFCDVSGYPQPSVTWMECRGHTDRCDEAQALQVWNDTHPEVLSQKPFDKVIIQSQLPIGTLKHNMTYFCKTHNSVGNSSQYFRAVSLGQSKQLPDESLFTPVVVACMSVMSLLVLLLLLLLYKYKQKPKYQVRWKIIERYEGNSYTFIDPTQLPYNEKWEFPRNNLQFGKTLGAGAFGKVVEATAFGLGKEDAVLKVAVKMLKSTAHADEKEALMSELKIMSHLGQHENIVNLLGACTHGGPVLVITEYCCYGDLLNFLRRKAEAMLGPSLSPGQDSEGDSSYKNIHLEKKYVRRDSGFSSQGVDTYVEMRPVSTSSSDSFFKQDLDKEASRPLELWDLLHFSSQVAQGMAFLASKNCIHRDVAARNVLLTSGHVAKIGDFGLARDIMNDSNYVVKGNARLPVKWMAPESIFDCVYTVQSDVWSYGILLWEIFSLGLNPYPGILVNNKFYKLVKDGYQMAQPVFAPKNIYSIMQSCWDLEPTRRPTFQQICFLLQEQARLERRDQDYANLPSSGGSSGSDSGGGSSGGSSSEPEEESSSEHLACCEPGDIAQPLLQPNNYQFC

CMKLR1 = CMKLR1 (Mus musculus, UniProt P97468); test: 64Cu-NODAGA-CG34 PET/CT in bleomycin-induced lung injury; type: in vivo
CMKLR1, sequence (P97468 whole entry): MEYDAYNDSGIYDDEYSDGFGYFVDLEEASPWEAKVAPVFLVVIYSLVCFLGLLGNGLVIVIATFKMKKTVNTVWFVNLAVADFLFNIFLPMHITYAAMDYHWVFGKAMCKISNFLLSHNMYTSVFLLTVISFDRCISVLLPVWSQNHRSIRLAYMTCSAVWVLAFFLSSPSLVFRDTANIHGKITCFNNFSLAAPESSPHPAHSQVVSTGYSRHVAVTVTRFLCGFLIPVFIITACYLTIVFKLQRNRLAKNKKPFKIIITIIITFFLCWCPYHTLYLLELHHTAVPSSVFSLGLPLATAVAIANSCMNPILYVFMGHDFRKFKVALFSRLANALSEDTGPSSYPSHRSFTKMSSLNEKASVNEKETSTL

[4] = as above; type: in vivo, mouse; details: mouse, lung, PET
HER2 = HER2 (Homo sapiens, UniProt P04626); test: 89Zr-trastuzumab PET in NCIN87 xenografts with metformin; type: in vivo, athymic nude mice
HER2, sequence (P04626 23-1255): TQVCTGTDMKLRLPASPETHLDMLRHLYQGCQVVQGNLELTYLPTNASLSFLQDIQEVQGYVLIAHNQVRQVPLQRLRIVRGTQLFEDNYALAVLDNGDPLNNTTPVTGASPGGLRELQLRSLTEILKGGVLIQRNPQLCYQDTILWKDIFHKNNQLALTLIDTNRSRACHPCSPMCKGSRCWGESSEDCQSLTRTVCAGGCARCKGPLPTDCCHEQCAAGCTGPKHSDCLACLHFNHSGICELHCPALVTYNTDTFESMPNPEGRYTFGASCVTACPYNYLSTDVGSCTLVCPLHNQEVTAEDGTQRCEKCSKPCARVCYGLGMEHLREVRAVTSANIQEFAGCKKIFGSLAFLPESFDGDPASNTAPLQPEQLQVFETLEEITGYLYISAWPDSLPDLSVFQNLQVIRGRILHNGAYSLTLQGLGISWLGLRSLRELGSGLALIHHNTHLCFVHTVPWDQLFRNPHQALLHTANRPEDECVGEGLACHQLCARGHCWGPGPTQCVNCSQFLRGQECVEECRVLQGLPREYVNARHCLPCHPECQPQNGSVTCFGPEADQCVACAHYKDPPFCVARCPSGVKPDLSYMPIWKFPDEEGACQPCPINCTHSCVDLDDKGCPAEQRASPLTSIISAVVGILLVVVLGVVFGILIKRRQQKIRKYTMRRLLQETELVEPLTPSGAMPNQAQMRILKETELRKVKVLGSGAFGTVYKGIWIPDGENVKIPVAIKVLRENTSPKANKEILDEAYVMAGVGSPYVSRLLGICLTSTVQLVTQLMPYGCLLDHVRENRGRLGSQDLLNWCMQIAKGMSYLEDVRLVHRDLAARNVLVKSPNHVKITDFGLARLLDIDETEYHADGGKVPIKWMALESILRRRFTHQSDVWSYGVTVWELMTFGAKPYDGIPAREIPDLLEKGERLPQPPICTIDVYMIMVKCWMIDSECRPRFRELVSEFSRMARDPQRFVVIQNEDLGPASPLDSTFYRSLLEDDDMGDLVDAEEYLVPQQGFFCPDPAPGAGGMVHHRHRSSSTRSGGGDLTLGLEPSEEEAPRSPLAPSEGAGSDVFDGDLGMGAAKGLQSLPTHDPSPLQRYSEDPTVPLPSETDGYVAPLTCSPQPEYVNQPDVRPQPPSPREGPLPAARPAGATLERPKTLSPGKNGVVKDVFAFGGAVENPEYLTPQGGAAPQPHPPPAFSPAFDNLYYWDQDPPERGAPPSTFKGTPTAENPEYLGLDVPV

EGFR = EGFR (Homo sapiens, UniProt P00533); test: 89Zr-panitumumab PET in A431 xenografts with metformin; type: in vivo, athymic nude mice; details: acute metformin
EGFR, sequence (P00533 25-1210): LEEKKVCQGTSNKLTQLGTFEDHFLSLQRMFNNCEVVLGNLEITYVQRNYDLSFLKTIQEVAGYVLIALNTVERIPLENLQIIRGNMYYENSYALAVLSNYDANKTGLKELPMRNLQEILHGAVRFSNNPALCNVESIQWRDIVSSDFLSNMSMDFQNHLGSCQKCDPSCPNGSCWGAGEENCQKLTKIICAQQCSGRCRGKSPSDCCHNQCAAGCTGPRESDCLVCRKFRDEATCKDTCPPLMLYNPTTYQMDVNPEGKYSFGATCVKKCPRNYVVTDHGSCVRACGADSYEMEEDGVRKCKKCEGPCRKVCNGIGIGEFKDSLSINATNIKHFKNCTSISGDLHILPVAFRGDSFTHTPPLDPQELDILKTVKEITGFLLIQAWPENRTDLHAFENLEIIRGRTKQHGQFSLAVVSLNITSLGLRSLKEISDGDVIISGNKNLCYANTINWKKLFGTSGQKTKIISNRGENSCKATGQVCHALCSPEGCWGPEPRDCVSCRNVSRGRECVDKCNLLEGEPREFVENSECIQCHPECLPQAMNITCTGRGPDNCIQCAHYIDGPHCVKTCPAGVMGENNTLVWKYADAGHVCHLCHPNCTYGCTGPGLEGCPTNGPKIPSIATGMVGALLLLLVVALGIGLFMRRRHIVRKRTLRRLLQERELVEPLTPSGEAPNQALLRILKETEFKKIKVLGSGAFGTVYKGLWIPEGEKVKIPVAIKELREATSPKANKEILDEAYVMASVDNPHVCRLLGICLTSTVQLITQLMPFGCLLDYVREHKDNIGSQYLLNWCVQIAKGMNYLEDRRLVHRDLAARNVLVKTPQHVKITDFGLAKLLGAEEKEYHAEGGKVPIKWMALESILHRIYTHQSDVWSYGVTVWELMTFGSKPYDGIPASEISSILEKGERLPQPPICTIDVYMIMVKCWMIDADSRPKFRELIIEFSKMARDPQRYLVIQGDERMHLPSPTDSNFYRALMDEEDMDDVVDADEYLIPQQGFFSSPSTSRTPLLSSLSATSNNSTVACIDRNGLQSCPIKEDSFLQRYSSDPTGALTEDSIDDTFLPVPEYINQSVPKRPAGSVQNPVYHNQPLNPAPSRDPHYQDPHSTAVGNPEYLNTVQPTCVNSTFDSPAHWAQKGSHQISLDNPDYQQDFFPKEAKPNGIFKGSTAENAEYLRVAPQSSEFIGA

PSMA = PSMA (Homo sapiens, UniProt Q04609); test: automated lesion detection on 68Ga PSMA PET; type: in vivo; details: 17 PSMA-positive lesions
[5] = tested on: dopaminergic (DA) neurons; test: 6-OHDA partial lesion rat model: rotation and DA neuron loss
HER2 and EGFRvIII = test: SNIPR-PET T cell imaging in dual xenografts; details: in vivo
IDO1 = IDO1 (Mus musculus, UniProt P28776); test: small animal PET in B16F10 mouse models; type: in vivo
IDO1, sequence (P28776 whole entry): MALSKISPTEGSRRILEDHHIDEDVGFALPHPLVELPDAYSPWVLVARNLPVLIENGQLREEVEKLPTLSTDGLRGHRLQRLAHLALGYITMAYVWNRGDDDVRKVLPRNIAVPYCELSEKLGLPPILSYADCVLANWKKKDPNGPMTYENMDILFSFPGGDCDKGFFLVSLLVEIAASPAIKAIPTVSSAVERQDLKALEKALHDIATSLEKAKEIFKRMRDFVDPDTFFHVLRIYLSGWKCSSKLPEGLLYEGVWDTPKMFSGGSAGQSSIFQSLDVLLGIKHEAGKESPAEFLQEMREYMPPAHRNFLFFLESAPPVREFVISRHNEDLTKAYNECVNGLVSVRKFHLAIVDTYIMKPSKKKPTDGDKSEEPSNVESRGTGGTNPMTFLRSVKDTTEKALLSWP

aminopeptidase N (APN) = test: kinetic parameters of probes for APN; type: biochemical
myeloperoxidase (MPO) = test: D-mannose in transient MCAO stroke with heMAMP MRI; type: in vivo, C57BL/6J mice
[6] = SWIR ratiometric imaging of ICG clearance; details: mean
[7] = tested on: YUMM1.7 melanoma xenografts; test: BRAF/MEK inhibition in YUMM1.7 melanoma xenografts; type: in vivo, mice; details: for production of 13C-lactate from 13C-glucose: 24 h after treatment; for tumor growth vs control group: mouse, in vivo
Disialoganglioside GD2 = test: Serial PET/CT of 89Zr-dinutuximab in B78 melanoma mice; type: in vivo, mouse
OX40 [8] = target: T1, OX40 (Homo sapiens, UniProt P43489); test: [89Zr]huOX40mAb binding to primary human T cells; type: cell-based
T1 sequence (P43489 29-277): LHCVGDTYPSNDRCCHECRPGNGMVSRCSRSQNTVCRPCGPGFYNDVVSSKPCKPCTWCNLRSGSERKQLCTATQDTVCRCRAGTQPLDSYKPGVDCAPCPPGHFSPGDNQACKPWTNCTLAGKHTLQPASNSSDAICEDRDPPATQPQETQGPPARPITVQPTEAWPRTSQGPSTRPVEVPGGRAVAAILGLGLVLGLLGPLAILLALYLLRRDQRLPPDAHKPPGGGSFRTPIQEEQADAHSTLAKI

OX40 [9] = target: T1, OX40; test: [89Zr]huOX40mAb PET in HEK293 tumor mice; type: in vivo, NSG mice; details: 72 hours p.i., PET ROI
OX40 [10] = target: T1, OX40; test: [89Zr]huOX40mAb binding to OX40+ HEK293 cells; type: cell-based
[11] = 12 μg 6-OHDA into right striatum

Cc1cccc(COc2ccccc2CN(CC[C@H](N)C(=O)O)Cc2ccccc2OCc2cccc(C)c2)c1 [V-9302]
reduction of [18F]FGln cell uptake (UMRC3 cells; treatment with inhibitor): 20-50%

COc1ccc(-c2nc([C@@H](C)Sc3nc(N)cc(N)n3)c(C)s2)cc1OCCN1CCOCC1 [TRE-515]
clinical symptoms ([1]; MOG35-55 and PLP139-151 EAE models): limited clinical symptoms
side effects ([1]; both MS mouse models): no observable side effects
plasma levels of deoxycytidine ([1]; mouse, in vivo): increased

Cc1ccc(NC(=O)c2ccc(CN3CCN(C)CC3)cc2)cc1Nc1nccc(-c2cccnc2)n1 [imatinib]
accumulation of Cy7-BiPPB in mutant kidneys under treatment (PDGFR-β): decreased

boronophenylalanine-fructose [BPA-Fr]
boron content of the tumor [2]: around 42±13 ppm

COc1cccc2c1-c1ccc3c(c1C(Cc1ccc([18F])cc1)O2)C(C)=CC(C)(C)N3 (centres unmarked) [18F-YJH08]
tumoral uptake [3]: ~ 2 % ID/g

Nc1ccncc1[18F] [[18F]3F4AP]
VT in gray matter (K+ channels; 1T model): 1.52-1.69 mL.cm^-3
VT in white matter (K+ channels; 1T model): 1.22-1.29 mL.cm^-3
VT in MS lesions (K+ channels; 2T model, two lesions of one MS subject): 2.24 mL. cm^-3 and 2.26 mL. cm^-3
whole-blood to plasma ratio (K+ channels; after 15 min): 0.88 ± 0.01
radioactivity corresponding to parent compound (K+ channels; plasma, 90 min post injection, Radio-HPLC, average): 31%
peak SUV in gray matter (K+ channels; ~3 min, control subjects): 5-7 SUV
peak SUV in white matter (K+ channels; ~3 min, control subjects): 2-4 SUV

O=C(Cc1cccc(OC(F)(F)F)c1)Nc1ccc(CCCCc2nnc(NC(=O)Cc3ccccn3)s2)nn1 [CB-839]
effect on [18F]FGln retention in lung tumors (ccRCC lung tumors): did not change significantly
effect on [18F]FGln cellular uptake (UMRC3 cells): increased

CC1CCN(c2cc(N3CCN(CC[18F])CC3)ccc2NC(=O)c2cc(C#N)c[nH]2)CC1 [[18F]1]
peak brain uptake in control mice (CSF1R; 5 min post-administration): 3.6 %ID/g tissue
increase in brain uptake in LPS group (CSF1R; LPS-treated vs control mice): 46%

CC(C)C[C@H](NC(=O)[C@H](Cc1ccccc1)NC(=O)[C@@H](Cc1ccc(O)cc1)NC(=O)CCC(C(=O)O)N1CCN(CC(=O)O)CCN(CC(=O)O)CC1)C(=O)N1CCC[C@H]1C(=O)N[C@H](CO)C(=O)N[C@@H](CCC(N)=O)C(=O)N[C@@H](Cc1ccccc1)C(=O)N[C@H](C)C(=O)N1Cc2ccccc2C[C@H]1C(=O)N[C@@H](CO)C(=O)O (some centres unmarked) [64Cu-NODAGA-CG34, metal not drawn] ({NODAGA}-[dY]FLP[dS]QF[dA][Tic]S-OH; N-terminus and C-terminus assumed)
uptake on co-injection of excess NODAGA-CG34 (CMKLR1; 100x molar excess non-radiolabeled): near-completely blocked
lung %ID/gmax, 1 week after bleomycin (CMKLR1; PET): 4.04±0.87 %ID/g
tissue uptake ([4]; lung %ID/gmax, 2 weeks): 3.35 ± 0.47 %ID/g
tissue uptake ([4]; lung %ID/gmax, 4 weeks): 1.96 ± 0.19 %ID/g
tissue uptake ([4]; lung %ID/gmax, baseline): 1.38 ± 0.1 %ID/g
tissue uptake ([4]; lung %ID/gmean, 1 week after bleomycin): 2.47 ± 0.67 %ID/g
tissue uptake ([4]; lung %ID/gmean, 2 weeks): 1.83 ± 0.3 %ID/g
tissue uptake ([4]; lung %ID/gmean, 4 weeks): 1.03 ± 0.1 %ID/g
tissue uptake ([4]; lung %ID/gmean, baseline): 0.7 ± 0.06 %ID/g

CN(C)C(=N)N=C(N)N [metformin]
lowering of [89Zr]Zr-DFO-Trastuzumab tumor uptake by daily metformin (HER2; 200 mg/kg ip for 11 consecutive days): 3.7 fold
%ID/g of 89Zr-labeled Trastuzumab, control vs acute metformin tumors (HER2; 24 h post-injection, metformin 250 mg/kg oral): ~ 1.6
uptake of 89Zr-labeled Panitumumab, control vs metformin-treated tumors (EGFR): ~ 1.8

O=C([O-])CN(CCN(CC(=O)[O-])Cc1cc(CCC(=O)NCCCCCC(=O)NCCCC[C@H](NC(=O)N[C@@H](CCC(=O)O)C(=O)O)C(=O)O)ccc1[O-])Cc1cc(CCC(=O)O)ccc1[O-].[68Ga+3].[OH3+] [68Ga PSMA]
diagnostic sensitivity of automated lesion detection (PSMA): 100%

CC(=O)NCC1CN(c2ccc(N3CCSCC3)c([18F])c2)C(=O)O1 (centres unmarked) [[18F]sutezolid]
brain penetration in TB meningitis (mouse, in vivo): penetrated the brain parenchyma
penetration in lung lesions vs unaffected lung (pulmonary TB, P< 0.05): significantly lower penetration in the lung lesions

NCCc1cc(O)c(O)cc1O [6-OHDA, 6-hydroxydopamine]
APO-induced rotations, 1st week [5, 11]: 6.4 ± 2.4 turns/ min
APO-induced rotations, 3rd week [5, 11]: 11.3±4.3 turns/ min
DA neurons loss in treated right striatum ([5]; [18F]D6-FP-(+)-DTBZ PET, 4th week): approximately 60%

Nc1nc2c(ncn2CCC(CO)C[18F])c(=O)[nH]1 (centres unmarked) [[18F]FHBG]
signal in antigen-expressing tumors vs controls (HER2 and EGFRvIII): > 10 fold

COc1ccc2[nH]cc(C[C@H](N)C(=O)O)c2c1[18F] [[18F]-L-T13, 4-F-5-OMe-tryptophan]
tumor uptake (IDO1): 9.57±0.26 %ID/g
tumor/muscle uptake ratio (IDO1): 4.57±0.2

C[C@H](N)C(N)=O [Ala-NH2]
Km (aminopeptidase N (APN)): 15.7 ± 4.4 mM

OC[C@H]1OC(O)[C@@H](O)[C@@H](O)[C@@H]1O (stereo partly drawn) [D-mannose]
neurological deficit scores vs PBS (myeloperoxidase (MPO); 450mg/kg i.p. daily): improved neurological deficit scores
heMAMP MRI enhancement in the infarcted area (myeloperoxidase (MPO); day 10, p=0.0027): decreased

CC1(C)C(/C=C/C=C/C=C/C=C2\N(CCCCS(=O)(=O)O)c3ccc4ccccc4c3C2(C)C)=[N+](CCCCS(=O)(=O)[O-])c2ccc3ccccc3c21 [ICG, indocyanine green]
blood half-life, isoflurane ([6]; sd 0.28, n=4): 2.56 min
blood half-life, awake ([6]; sd 0.73, n=4): 2.81 min
liver clearance, isoflurane ([6]; sd 2.50, n=3): 18.44 min
liver clearance, awake ([6]; sd 3.29, n=9): 18.71 min

CC(=O)Nc1cccc(-n2c(=O)n(C3CC3)c(=O)c3c(Nc4ccc(I)cc4F)n(C)c(=O)c(C)c32)c1 [trametinib]
production of 13C-lactate from 13C-glucose [7]: significantly reduced
tumor growth vs control group [7]: significantly delayed

NC(=O)[C@H]([18F])C[C@H](N)C(=O)O [[18F]FGln, (2S,4R)-4-[18F]fluoroglutamine]
retention in lung tumors vs muscle (ccRCC lung tumors): 2 fold
retention in lung tumors vs normal lung tissue (ccRCC lung tumors): 1.5 fold
cell uptake in UMRC3 vs HEK293 cells (UMRC3 cells): 2 fold
reduction of tracer cell uptake by excess glutamine (UMRC3 cells; excess glutamine in the media): 60-90%

CCCS(=O)(=O)Nc1ccc(F)c(C(=O)c2c[nH]c3ncc(-c4ccc(Cl)cc4)cc23)c1F [vemurafenib]
production of 13C-lactate from 13C-glucose [7]: significantly reduced
tumor growth vs control group [7]: significantly delayed

B1: 89Zr-dinutuximab: anti-GD2 mAb dinutuximab radiolabeled via DFO (antibody, chains of the INN, looked up, V domains shown)
VH: EVQLLQSGPELEKPGASVMISCKASGSSFTGYNMNWVRQNIGKSLEWIGAIDPYYGGTSYNQKFKGRATLTVDKSSSTAYMHLKSLTSEDSAVYYCVSGMEYWGQGTSVTVSS
VL: EIVMTQSPATLSVSPGERATLSCRSSQSLVHRNGNTYLHWYLQKPGQSPKLLIHKVSNRFSGVPDRFSGSGSGTDFTLKISRVEAEDLGVYFCSQSTHVPPLTFGAGTKLELK
modifications: 89Zr-DFO
tumor uptake (Disialoganglioside GD2; 4 hours, PET): 6.5 %ID/g
tumor uptake (peak) (Disialoganglioside GD2; 71 hours, PET): 12 %ID/g
blood uptake (Disialoganglioside GD2; 170 hours): < 2 %ID/g
liver uptake (Disialoganglioside GD2; 170 hours): ~ 6 %ID/g
normal tissues uptake except liver (Disialoganglioside GD2; 170 hours): < 5 %ID/g
normal tissues uptake (Disialoganglioside GD2; initial): < 11 %ID/g

B2: [89Zr]huOX40mAb: DFO-conjugated human OX40 mAb Ivuxolimab labeled with 89Zr (conjugate, chains of the INN, looked up)
VH: EVQLVESGGGLVQPGGSLRLSCAASGFTFSSYSMNWVRQAPGKGLEWVSYISSSSSTIDYADSVKGRFTISRDNAKNSLYLQMNSLRDEDTAVYYCARESGWYLFDYWGQGTLVTVSS
VL: DIQMTQSPSSLSASVGDRVTITCRASQGISSWLAWYQQKPEKAPKSLIYAASSLQSGVPSRFSGSGSGTDFTLTISSLQPEDFATYYCQQYNSYPPTFGGGTKVEIK
modifications: DFO; 89Zr
binding to activated (OX40+) vs resting T cells (OX40 [8]): 10.8 fold
reduction of binding to activated T cells by blocking (OX40 [8]; 25-fold excess cold mAb): 88%
uptake in HEK293 tumors (OX40 [9]): 2.5 ± 0.7 %ID/g
binding to OX40+ HEK293 vs parental HEK293 cells (OX40 [10]): 26.8 fold
reduction of binding to OX40+ HEK293 cells by blocking (OX40 [10]; 25-fold excess cold mAb): 87%
